Measured values reported in patent US20230021483A1, “[…] […] METHOD AND CLASSIFICATION OF PHARMACEUTICAL COMPONENTS BY USING TRANSCRIPTOMES” (National Institutes of Biomedical Innovation, Health and …, priority 2016, published 2023).

Legend:
Assay type in all cases: in vivo, C57BL/6 mice
[1] = system: preferentially upregulated genes in LV, SP, LN; experiment: Z-score-based differential gene expression analysis (adjuvant group- or adjuvant-associated genes, 40 module mapping, TargetMine annotation)
Outline: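 Per-sample fold-change values converted to gene-wise z-scores within each organ's data set, then triplicate z-scores summed per adjuvant. Genes with summed score >3 taken as preferentially expressed; gene groups defined by combined per-adjuvant z-score thresholds (z>1 to z>3) specific to each organ.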

[2] = system: LV, SP and LNs; experiment: Whole organ transcriptome across organs (adjuvant gene space): gene responses and adjuvant grouping
[3] = system: spleen (SP); experiment: Whole organ transcriptome (GeneChip microarray) of spleen 6 h after adjuvant administration: sDEGs, hierarchical clustering; conditions: for Number of gene probes with statistically significant changes (sDEGs), SP, Down: fold change <0.667, p<0.01, customized PA call=1, 6 h after adjuvant; for Number of gene probes with statistically significant changes (sDEGs), SP, Up: fold change >1.5, p<0.01, customized PA call=1, 6 h after adjuvant
[4] = system: inguinal lymph nodes (LN); experiment: Whole organ transcriptome (GeneChip microarray) of draining inguinal lymph nodes 6 h after adjuvant administration: sDEGs, gene modules, hierarchical clustering; on adjuvant group (cluster) in LN: key: G1 (interferon signaling); G2 (metabolism of lipids and lipoproteins); G3 (response to stress); G4 (response to wounding); G5 (phosphate-containing compound metabolic process); G6 (phagosome)
[5] = liver (LV), gene group G1, module 20, individual mice x1-x3, route ID/IP/IN

Substance: K3: B class CpG ODN (ATCGACTCTCGAGCGTTCTC), TLR9 ligand (chemistry not given here)
- Irf7 1417244_a_at (Group G1, Modules 20) ([1]; IP, LV, sample x3): −0.5
- Irgm1 1418825_at (Group G1, Modules 20) ([1]; IP, LV, sample x3): −0.6
- Mndal 1426906_at (Group G1, Modules 20) ([1]; IP, LV, sample x3): −0.4
- Pml 1448757_at (Group G1, Modules 20) ([1]; IP, LV, sample x3): −0.6
- Pml 1456103_at (Group G1, Modules 20) ([1]; IP, LV, sample x3): −0.6
- Rnf213 1455500_at (Group G1, Modules 20) ([1]; IP, LV, sample x3): −0.5
- Rsad2 1436058_at (Group G1, Modules 20) ([1]; IP, LV, sample x3): −0.5
- Shisa5 1423986_a_at (Group G1, Modules 20) ([1]; IP, LV, sample x3): −0.8
- Shisa5 1437503_a_at (Group G1, Modules 20) ([1]; IP, LV, sample x3): −0.6
- Stat1 1450033_a_at (Group G1, Modules 20) ([1]; IP, LV, sample x3): −0.5
- Stat1 1450034_at (Group G1, Modules 20) ([1]; IP, LV, sample x3): −0.6
- Tdrd7 1426716_at (Group G1, Modules 20) ([1]; IP, LV, sample x3): −0.3
- Tor1aip2 1418115_s_at (Group G1, Modules 20) ([1]; IP, LV, sample x3): −0.2
- Tor1aip2 1418116_at (Group G1, Modules 20) ([1]; IP, LV, sample x3): −0.2
- Tor1aip2 1435526_at (Group G1, Modules 20) ([1]; IP, LV, sample x3): −0.5
- Trim12a 1437432_a_at (Group G1, Modules 20) ([1]; IP, LV, sample x3): −0.5
- Uba7 1426970_a_at (Group G1, Modules 20) ([1]; IP, LV, sample x3): −0.3
- preferentially induced biological process relative to adjuvants targeting the same receptor ([1]; LN, z-scores and 40 module mapping): preferentially induced RNA biogenesis
- Z score of gene expression, Adar (probe 1425405_a_at) [1, 5]: −0.5
- Z score of gene expression, Adar (probe 1434268_at) [1, 5]: −0.1
- Z score of gene expression, Ddx58 (probe 1436562_at) [1, 5]: −0.5
- Z score of gene expression, Ddx58 (probe 1456890_at) [1, 5]: −0.6
- Z score of gene expression, Eif2ak2 (probe 1422005_at) [1, 5]: −0.5
- Z score of gene expression, G3bp2 (probe 1421323_a_at) [1, 5]: −0.5
- Z score of gene expression, Gm9706///Isg15 (probe 1431591_s_at) [1, 5]: −0.5
- Z score of gene expression, H2-T10///H2-T22///H2-T9 (probe 1449875_s_at) [1, 5]: −0.7
- Z score of gene expression, Ifih1 (probe 1426276_at) [1, 5]: −0.5
- Z score of gene expression, Ifit1 (probe 1449025_at) [1, 5]: −0.5
- Z score of gene expression, Ifit1 (probe 1450783_at) [1, 5]: −0.5
- Z score of gene expression, Irf7 (probe 1417244_a_at) [1, 5]: −0.4
- Z score of gene expression, Irgm1 (probe 1418825_at) [1, 5]: −0.5
- Z score of gene expression, Mndal (probe 1426906_at) [1, 5]: −0.5
- Z score of gene expression, Pml (probe 1448757_at) [1, 5]: −0.5
- Z score of gene expression, Pml (probe 1456103_at) [1, 5]: −0.6
- Z score of gene expression, Rnf213 (probe 1455500_at) [1, 5]: −0.5
- Z score of gene expression, Rsad2 (probe 1436058_at) [1, 5]: −0.5
- Z score of gene expression, Shisa5 (probe 1423986_a_at) [1, 5]: −0.5
- Z score of gene expression, Shisa5 (probe 1437503_a_at) [1, 5]: −0.5
- Z score of gene expression, Stat1 (probe 1450033_a_at) [1, 5]: −0.5
- Z score of gene expression, Stat1 (probe 1450034_at) [1, 5]: −0.5
- Z score of gene expression, Tdrd7 (probe 1426716_at) [1, 5]: −0.6
- Z score of gene expression, Tor1aip2 (probe 1418115_s_at) [1, 5]: −0.1
- Z score of gene expression, Tor1aip2 (probe 1418116_at) [1, 5]: −0.1
- Z score of gene expression, Tor1aip2 (probe 1435526_at) [1, 5]: −0.1
- Z score of gene expression, Trim12a (probe 1437432_a_at) [1, 5]: −0.4
- Z score of gene expression, Uba7 (probe 1426970_a_at) [1, 5]: −0.4
- gene expression changes in LV and SP ([2]; 6 h, Table 15, route not given): relatively weaker responses
- distribution/strength of gene responses between local LNs and systemic organs (LV, SP) ([2]; 6 h after i.d. (local) administration): acted on local LNs but not in the systemic remote organs
- adjuvant group (cluster) within the adjuvant gene space ([2]; hierarchical clustering, LV, SP and/or LNs): G5
- Number of gene probes with statistically significant changes (sDEGs), SP, Down ([3]; i.d. administration): 18
- Number of gene probes with statistically significant changes (sDEGs), SP, Up ([3]; i.d. administration): 11
- Number of gene probes with statistically significant changes (sDEGs), SP, Down ([3]; i.p. administration): 10
- Number of gene probes with statistically significant changes (sDEGs), SP, Up ([3]; i.p. administration): 24
- genes in module 16 of the LNs (M16^LN), phagosome-related, macrophage-associated ([4]; LN, 6 h): upregulated
- module M15^LN (immune system process, T cell associated) ([4]; LN, 6 h): weakly induced
- adjuvant group (cluster) in LN ([4]; hierarchical clustering, lymph node): G5
- Number of gene probes with statistically significant changes (sDEGs), LN, Down ([4]; i.d. administration, lymph node, fold change <0.667, p<0.01, customized PA call=1, 6 h after adjuvant): 18
- Number of gene probes with statistically significant changes (sDEGs), LN, Up ([4]; i.d. administration, lymph node, fold change >1.5, p<0.01, customized PA call=1, 6 h after adjuvant): 53
